Several values for one entry are separate records, joined by “and”; a condition that tells them apart may be missing. Equal entries are not always repeated.
Legend:
Assay type in all cases: in vivo, human
[1] = Phase I Part 1 single ascending dose (SAD) pharmacokinetics of plasma 15(S)-HEPE, fasted; conditions: for AUC0-last / Cmax / Tlast / Tmax: plasma 15(S)-HEPE, Day 1; for AUC0-last / Cmax: geom. mean (geom. CV %); for Tlast / Tmax: median (minimum, maximum)
Experimental: (§1) A Phase I, single-centre, randomised, double-blind, placebo-controlled study in male and female healthy volunteers aged 18 to 45 years, inclusive was performed. Fifty-seven (57) subjects were enrolled with 8 subjects per cohort (ideally 4 males and 4 females, but no less than 3 per gender). Cohort 5 enrolled a total of 9 subjects to account for discontinued subjects. The effective date of study commencement was defined as inclusion of the first subject (inclusion starts with the informed consent signature). Subjects who were enrolled in Part 1 of the study (single dose cohorts) could have been brought back and re-enrolled in Part 2 (multiple dose) provided they had no AEs related to the study drug and that there was at least a 14-day washout period before starting the multiple dose. There were 18 subjects who participated in both study parts. The subjects underwent screening within 21 days prior to study Day 1.
Part 1 comprised 4 dose cohorts (100 mg, 500 mg, 1000 mg, and 2000 mg). Six (6) subjects were randomized to receive DS102 and 2 subjects received matching placebo. A single oral dose of DS102 or matching placebo was administered.
(§2) In Part 1, DS102 capsules (Lot No. 2540M-1504) or matching placebo (Lot No. KM73) were administered in a single oral dose according to Table 1.
(§3) For study Part 1, Cohorts 1, 2, 3, and 4 blood samples were taken predose on Day 1 up to 312 hours postdose. For study Part 2, Cohorts 5, 6, and 7 blood samples were taken on Days 1, 14, and 28 at predose and up to 168 hours postdose. The appropriate PK parameters, e.g., Cmax, Tmax, AUC0-24, AUC0-last, AUC0-inf, AUC % ext, Kel, t½, RCmax, and RAUC were presented, where appropriate. Plasma 15(S)-HEPE data contained many values below the limit of quantitation (BLQ) and only sparse measurable concentrations leading to incomplete PK profiles. Given the nature of the data observed, conventional dose proportionality and steady-state analyses could not be performed. No inferential statistical analyses were performed for PK parameters.
(§4) Summary statistics, including sample size (N), arithmetic mean (mean), standard deviation (SD), coefficient of variation (CV %), median, minimum, and maximum were calculated for all nominal concentration time points. Plasma 15(S)-HEPE PK parameters were tabulated by treatment and listed by subject and parameter. Summary statistics (N, mean, SD, CV %, median, minimum, and maximum) were calculated for plasma 15(S)-HEPE PK parameters. In addition, geometric mean (Geom. Mean) and geometric CV % (Geom. CV %) were presented for AUCs and Cmax. Excluded subjects were included in the PK parameter table listings, but were excluded from the summary statistics and noted as such in the tables. Mean and individual concentration-time profiles were presented on linear and semi-log scales. Linear mean plots were presented with and without SD. Individual plots were presented on linear and semi-log scales.

[2] = Phase I Part 1 food effect pharmacokinetics of plasma 15(S)-HEPE (standard ATPIII/TLC diet, high-fat diet); conditions: for Tlast / Tmax: median
Experimental: as §1
Cohort 2 also received 500 mg of DS102 in 2 fed states. While the first 500 mg dose was given in fasted state, the second and third 500 mg doses were given in fed state (standard ATPIII/TLC diet and high-fat diet, respectively). The second dose was received at least 14 days after their first dose and the third dose was received at least 14 days after their second dose.
as §2, §3, §4

[3] = Phase I Part 2 multiple ascending dose (MAD) pharmacokinetics of plasma 15(S)-HEPE, QD for 28 days, fasted; conditions: for AUC0-last / Cmax: geom. mean; for Tlast / Tmax: median; for RAUC / RCmax: mean ± SD
Experimental: as §1
Part 2 of the study involved a multipledose regimen at 3 dose levels using 3 cohorts consisting of 8 subjects each. Six (6) subjects were randomized to receive DS102 and 2 subjects received matching placebo. Cohorts 5 and 6 (9 and 8 subjects, respectively) received oral DS102 or placebo QD for 28 days.
In Part 2, DS102 capsules (Lot No. 2540M-1504) or matching placebo (Lot No. KM73) were administered QD for 28 days according to Table 2.
as §3, §4

[4] = Phase I safety evaluation (AEs, clinical laboratory tests, vital signs, ECGs); conditions: healthy subjects
Experimental: as §1
All clinical safety data were presented in by-subject data listings. Safety was evaluated by clinical laboratory tests, physical examination, vital signs, electrocardiograms (ECGs), and adverse events (AEs).
Continuous variables were summarized using number of observations (N), mean, SD, median, minimum, and maximum. Frequency counts were reported for categorical data. AEs were classified according to the Medical Dictionary for Regulatory Activities (MedDRA®), Version 18.0. Concomitant medications were classified according to the World Health Organization (WHO) Drug Dictionary 1 Mar. 2015. Vital sign, ECG, and laboratory summary and change from baseline results were presented. Shift tables were also presented for laboratory and ECG parameters.

[5] = single oral 500 mg fasted, N = 2
[6] = single oral 1000 mg fasted, N = 3
[7] = single oral 2000 mg fasted, N = 3
[8] = plasma 15(S)-HEPE, single oral 500 mg fed high fat diet, N = 6, geom. mean
[9] = plasma 15(S)-HEPE, single oral 500 mg fed high fat diet, N = 6
[10] = plasma 15(S)-HEPE, single oral 500 mg fed standard diet, N = 6, geom. mean
[11] = plasma 15(S)-HEPE, single oral 500 mg fed standard diet, N = 6
[12] = single oral 500 mg with a standard or high-fat diet
[13] = 500 mg QD fasted, Days 14 and 28
[14] = plasma 15(S)-HEPE, 500 mg QD fasted, Day 1, N = 6
[15] = plasma 15(S)-HEPE, 500 mg QD fasted, Day 1, reported only for Subject 38
[16] = plasma 15(S)-HEPE, 500 mg QD fasted, Day 14, N = 3
[17] = plasma 15(S)-HEPE, 500 mg QD fasted, Day 28, N = 2

For “15-Hydroxy-Eicosapentaenoic Acid Ethyl Ester [DS102]”, which AUC0-last [1, 5] is on record?
The AUC0-last was 1270 (70.9) ng * hr/mL and 1270 ng * hr/mL.

What about the Cmax [1, 5] of the same substance?
The Cmax was 343.7 (52.1) ng/mL and 343.7 ng/mL.

And the Tlast [1, 5]?
Its Tlast is 8.001 (8.00, 8.00) hr and 8.001 hr.

What about the Tmax [1, 5] of the same substance?
Its Tmax is 6.005 (6.00, 6.01) hr and 6.005 hr.

What about the AUC0-last [1, 6] of the same substance?
Its AUC0-last is 1063 (102.6) ng * hr/mL.

What about the Cmax [1, 6] of the same substance?
Its Cmax is 366.2 (102.5) ng/mL.

And the Tlast [1, 6]?
The Tlast was 7.999 (8.00, 8.00) hr.

What about the Tmax [1, 6] of the same substance?
Its Tmax is 5.996 (5.99, 6.00) hr.

And the AUC0-last [1, 7]?
The AUC0-last was 733.3 (56.5) ng * hr/mL.

And the Cmax [1, 7]?
The Cmax was 294.3 (70.1) ng/mL.

What about the Tlast [1, 7] of the same substance?
Its Tlast is 8.001 (8.00, 8.01) hr.

What about the Tmax [1, 7] of the same substance?
The Tmax was 8.001 (6.01, 8.01) hr.

What about the “Plasma concentrations of 15(S)-HEPE” value ([1]; single oral 100 mg fasted, entire sampling interval, all subjects) of the same substance?
The value was “BLQ”.

And the “median Tmax” value ([1]; single oral 500 mg fasted)?
Its value is 6.00 h.

What about the “median Tmax” value ([1]; single oral 1000 mg fasted) of the same substance?
Its value is 6.00 h.

And the “median Tmax” value ([1]; single oral 2000 mg fasted)?
The value was 8.00 h.

And the “delay of apparition of 15(S)-HEPE in plasma” value ([2]; 500 mg with high-fat diet compared to standard diet)?
Its value is 2 h.

And the “effect of fed state on 15(S)-HEPE absorption” value ([2]; fed state (standard or high-fat diet))?
The value was “considerably increase 15(S)-HEPE absorption”.

What about the AUC0-last [2, 8] of the same substance?
The AUC0-last was 9693 ng·h/mL.

And the Cmax [2, 8]?
Its Cmax is 2402 ng/mL.

What about the Tlast [2, 9] of the same substance?
Its Tlast is 11.993 h.

What about the Tmax [2, 9] of the same substance?
Its Tmax is 6.021 h.

And the AUC0-24 [2, 10]?
Its AUC0-24 is 10940 ng·h/mL.

And the AUC0-last [2, 10]?
Its AUC0-last is 8450 ng·h/mL.

What about the Cmax [2, 10] of the same substance?
Its Cmax is 2420 ng/mL.

What about the Tlast [2, 11] of the same substance?
Its Tlast is 8.017 h.

What about the Tmax [2, 11] of the same substance?
The Tmax was 4.014 h.

And the AUC0-inf ([2]; plasma 15(S)-HEPE, single oral 500 mg fed standard diet, calculable for 4 subjects, geom. mean)?
The AUC0-inf was 11050 ng·h/mL.

And the t½ ([2]; plasma 15(S)-HEPE, single oral 500 mg fed standard diet, calculable for 4 subjects, mean ± SD)?
The t½ was 1.998 ± 1.5155 h.

And the Kel ([2]; plasma 15(S)-HEPE, single oral 500 mg fed standard diet, mean ± SD)?
The Kel was 0.471 ± 0.228 h⁻¹.

And the “median Tmax” value ([2]; single oral 500 mg after a high-fat diet)?
Its value is 6.00 h.

And the “median Tmax” value ([2]; single oral 500 mg after a standard diet)?
Its value is 4.00 h.

And the “time at which peak mean plasma concentrations were reached” value [2, 12]?
The value was “approximately 4 hours”.

What about the “time plasma concentrations remained quantifiable in at least one subject” value [2, 12] of the same substance?
Its value is 12 hours postdose.

And the “mean 15(S)-HEPE t½” value ([2]; single oral 500 mg, standard diet)?
Its value is 2.00 h and 2.0 h.

What about the “effect of diet on mean maximum and overall exposure of 15(S)-HEPE (Cmax and AUC0-last)” value ([2]; single oral 500 mg, standard or high-fat diet relative to fasted) of the same substance?
The value was “increased mean maximum and overall exposure”.

What about the “mean plasma concentrations of 15(S)-HEPE, fed versus fasted” value ([2]; single oral 500 mg, standard or high-fat diet vs fasted) of the same substance?
Its value is “higher under fed conditions”.

And the “time of peak mean 15(S)-HEPE concentrations” value ([3]; 500 mg QD fasted, Day 1)?
The value was 4 h.

And the “time plasma concentrations remained measurable in at least one subject” value ([3]; 500 mg QD fasted, Day 14)?
Its value is 24 hours postdose.

And the “time plasma concentrations remained measurable in at least one subject” value ([3]; 500 mg QD fasted, Days 1 and 28)?
Its value is 12 hours postdose.

And the “predose values (troughs)” value [3, 13]?
The value was “not quantifiable”.

And the “time of peak mean 15(S)-HEPE concentrations” value [3, 13]?
The value was 6 h.

What about the “mean plasma 15(S)-HEPE concentrations by study day” value ([3]; 1000 mg QD fasted) of the same substance?
Its value is “higher on Day 14 than on Days 1 and 28”.

And the “time plasma concentrations remained quantifiable in at least one subject” value ([3]; 1000 mg QD fasted, Day 14)?
The value was 12 hours postdose.

And the “time plasma concentrations remained quantifiable in at least one subject” value ([3]; 1000 mg QD fasted, Days 1 and 28)?
Its value is 8 hours postdose.

And the “predose values (troughs)” value ([3]; 1000 mg QD fasted, Days 14 and 28)?
Its value is “no quantifiable predose values”.

And the AUC0-last [3, 14]?
Its AUC0-last is 1681 ng·h/mL.

What about the Cmax [3, 14] of the same substance?
The Cmax was 459.1 ng/mL.

And the Tlast [3, 14]?
The Tlast was 8.079 h.

What about the Tmax [3, 14] of the same substance?
The Tmax was 5.005 h.

And the AUC0-24 [3, 15]?
Its AUC0-24 is 6249 ng·h/mL.

What about the AUC0-inf [3, 15] of the same substance?
The AUC0-inf was 6277 ng·h/mL.

And the Kel [3, 15]?
Its Kel is 0.245 h⁻¹.

What about the t½ [3, 15] of the same substance?
The t½ was 2.824 h.

And the AUC0-last [3, 16]?
Its AUC0-last is 2370 ng·h/mL.

What about the Cmax [3, 16] of the same substance?
Its Cmax is 644.1 ng/mL.

And the RAUC [3, 16]?
Its RAUC is 6.807 ± 10.322.

What about the RCmax [3, 16] of the same substance?
Its RCmax is 4.177 ± 5.4055.

What about the Tlast [3, 16] of the same substance?
The Tlast was 8.034 h.

What about the Tmax [3, 16] of the same substance?
The Tmax was 5.995 h.

And the AUC0-last [3, 17]?
The AUC0-last was 2787 ng·h/mL.

And the Cmax [3, 17]?
The Cmax was 737.4 ng/mL.

And the RAUC [3, 17]?
The RAUC was 8.205 ± 10.210.

And the RCmax [3, 17]?
The RCmax was 5.923 ± 6.8329.

And the Tlast [3, 17]?
Its Tlast is 10.002 h.

And the Tmax [3, 17]?
The Tmax was 6.004 h.

And the “adverse events considered related to the study treatment” value ([4]; following DS102 treatment)?
The value was “dysguesia and eructation”.

And the “deaths, serious adverse events, discontinuations due to AEs” value ([4]; single and multiple ascending doses)?
The value was “no deaths, serious adverse events (SAEs), or subject discontinuations due to AEs”.

What about the safety and tolerability ([4]; single ascending doses of 100 mg, 500 mg, 1000 mg and 2000 mg and multiple ascending doses of 500 mg, 500 and 1000 mg) of the same substance?
Its safety and tolerability is “safe and well tolerated”.
